Laboratory results from patent US7037502B2, “Peptide with the amino acid sequence of KVLDGQDP having anti-inflammatory properties” (priority 2001, dated 2006).
Entries after “also recorded” stand apart in the source; their conditions may differ.

Key:
[1] = tested on: eosinophil infiltration of conjunctiva; test: Allergic conjunctivitis to ragweed in guinea pig: histology, eosinophil count in conjunctiva; format: in vivo, Hartley female guinea pig; details: for Statistical evaluation of eosinophil count (Mann-Whitney test), P compared to Livostine / Statistical evaluation of eosinophil count (Mann-Whitney test), P compared to No treatment group / Statistical evaluation of eosinophil count (Mann-Whitney test), P compared to Dexamethasone: eosinophils in three fields of conjunctiva (×400), 12 eyes per group, eye drops
Method: The peptides of the present invention were analyzed in experimental model of allergic conjunctivitis to ragweed (giant ragweed; Ambrosia trifida) in guinea pig. Hartley strain of guinea pig was selected according to previous reports of conjunctival anaphylaxis (Calonge M., et al., Acta Ophthalmol 68; 470–476, 1990) and females were chosen based on the sex dimorphism of ocular mucosal immunity with the protective role of male hormones (Saruya S., et al., Act Soc Ophthalmol Jap 72; 833–845, 1968). The conjunctival redness and edema are main signs of seasonal allergic conjunctivitis and eosionphil infiltration is the hallmark of the conjunctival histology in patients with allergic conjunctivitis (Abelson M B., et al., Arch Ophthalmol. 101; 555–556, 1983; Butrus S I., et al., Int. Ophthalmol. Clin. 28; 324–328, 1988)
86 Hartley female guinea pigs, 200–250 g were housed in the animal facilities of the Asan Institute for Life Sciences (Korea), given guinea pig chow and water ad libitum, and cared for in accordance with the Declaration of Helsinki and the National Institute of Health Guide to the Care and Use of the Laboratory Animals (Korea).
On day 15, immunized guinea pigs were divided 14 groups, 6 for each group. 11 anti-inflammatory peptides including new recombinants, dexamethasone eye drop (Maxidex, 0.1% dexamethasone, Alcon) and anti-histamine eye drop (Livostin, levocabastine, Janssen) were used for 13 groups, and no treatment for one group. Normal controls were employed as 6 non-immunized and non-treated guinea pigs. […] All the procedures were followed experimental model of allergic conjunctivitis described by Merayo-Lloves et al (Experimental model of allergic conjunctivitis to ragweed in guinea pig. Curr. Eye Res. 14; 487–494, 1995).
Anti-inflammatory peptides were resolved in sterile saline (100 μmol/40 μl concentration). All peptides and dexamethasone eye solutions were challenged 3 hour prior to the last pollen application on day 15, 10 minutes after pollen application, and 4 times thereafter at the 3 hour interval.
The orbits were excentrated after the animals were killed with CO2 asphyxia, and specimens were prepared for light microscopic examination. Sectioned specimens were stained with hematoxylin-eosin.
Eosinophils in the standardized fields of conjunctival epithelium, the immediate subepithelial, and the stroma were counted in three non-consecutive fields (magnification ×400) for each treatment in each experiment (12 eyes in each group).

[2] = tested on: allergic conjunctivitis to ragweed (Ambrosia trifida); test: Allergic conjunctivitis to ragweed in guinea pig: clinical scores (conjunctival edema and redness); format: in vivo, Hartley female guinea pig; details: for Statistical evaluation of clinical scores (Mann-Whitney test), P compared to No treatment group / Statistical evaluation of clinical scores (Mann-Whitney test), P compared to Dexamethasone / Statistical evaluation of clinical scores (Mann-Whitney test), P compared to Livostine: conjunctival edema and redness score 0-4+, 20 min after allergen challenge, 12 eyes per group, eye drops; for Clinical signs (conjunctival redness and edema scores), result in words: n=12, P<0.01, SD<10%, Mann-Whitney test
Method: The peptides of the present invention were analyzed in experimental model of allergic conjunctivitis to ragweed (giant ragweed; Ambrosia trifida) in guinea pig. Hartley strain of guinea pig was selected according to previous reports of conjunctival anaphylaxis (Calonge M., et al., Acta Ophthalmol 68; 470–476, 1990) and females were chosen based on the sex dimorphism of ocular mucosal immunity with the protective role of male hormones (Saruya S., et al., Act Soc Ophthalmol Jap 72; 833–845, 1968). The conjunctival redness and edema are main signs of seasonal allergic conjunctivitis and eosionphil infiltration is the hallmark of the conjunctival histology in patients with allergic conjunctivitis (Abelson M B., et al., Arch Ophthalmol. 101; 555–556, 1983; Butrus S I., et al., Int. Ophthalmol. Clin. 28; 324–328, 1988) 86 Hartley female guinea pigs, 200–250 g were housed in the animal facilities of the Asan Institute for Life Sciences (Korea), given guinea pig chow and water ad libitum, and cared for in accordance with the Declaration of Helsinki and the National Institute of Health Guide to the Care and Use of the Laboratory Animals (Korea). […] On day 15, immunized guinea pigs were divided 14 groups, 6 for each group. 11 anti-inflammatory peptides including new recombinants, dexamethasone eye drop (Maxidex, 0.1% dexamethasone, Alcon) and anti-histamine eye drop (Livostin, levocabastine, Janssen) were used for 13 groups, and no treatment for one group. Normal controls were employed as 6 non-immunized and non-treated guinea pigs. […] All the procedures were followed experimental model of allergic conjunctivitis described by Merayo-Lloves et al (Experimental model of allergic conjunctivitis to ragweed in guinea pig. Curr. Eye Res. 14; 487–494, 1995). Anti-inflammatory peptides were resolved in sterile saline (100 μmol/40 μl concentration). All peptides and dexamethasone eye solutions were challenged 3 hour prior to the last pollen application on day 15, 10 minutes after pollen application, and 4 times thereafter at the 3 hour interval. Conjunctival edema and redness were judged in room light and under an operating microscope (Zeiss, Germany). The evaluation was performed in a masked fashion at 20 min after allergen challenge and each clinical sign was scored on a scale 0–4+ (0 absent, 1+ minimal, 2+ mild, 3+ moderate, 4+ severe), adapted for guinea pig from previous report (Merayo-Lloves et al: Experimental model of allergic conjunctivitis to ragweed in guinea pig. Curr. Eye Res. 14; 487–494, 1995). Clinical scores of each group (12 eyes in each group) were analyzed.

PLA2 = PLA2 (Sus scrofa, UniProt P00592); details: Miele et al., Nature 335, 726-730, 1988; cited from earlier work
Sequence of PLA2 (P00592 23-146): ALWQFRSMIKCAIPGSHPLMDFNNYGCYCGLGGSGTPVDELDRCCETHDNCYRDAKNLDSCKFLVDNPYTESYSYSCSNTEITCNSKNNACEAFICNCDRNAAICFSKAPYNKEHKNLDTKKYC

Compound | Statistical evaluation of eosinophil count (Mann-Whitney test), P compared to Livostine [1] | Statistical evaluation of eosinophil count (Mann-Whitney test), P compared to No treatment group [1] | Statistical evaluation of clinical scores (Mann-Whitney test), P compared to No treatment group [2] | Anti-inflammatory activity, overall conclusion in words ([1]; allergic conjunctivitis model in guinea pig, summary of Example 2, listed as SEQ ID NO:3) | Statistical evaluation of eosinophil count (Mann-Whitney test), P compared to Dexamethasone [1] | Histological signs (eosinophil infiltration), result in words ([1]; n=12, P<0.01, SD<10%, Mann-Whitney test) | Statistical evaluation of clinical scores (Mann-Whitney test), P compared to Dexamethasone [2] | Statistical evaluation of clinical scores (Mann-Whitney test), P compared to Livostine [2] | Clinical signs (conjunctival redness and edema scores), result in words [2] | PLA2 inhibitor activity, in words (PLA2)
C[C@@H]1C[C@H]2[C@@H]3CCC4=CC(=O)C=C[C@]4(C)[C@@]3(F)[C@@H](O)C[C@]2(C)[C@@]1(O)C(=O)CO [Dexamethasone, dexamethasone] | 0.932 | 0.000 | 0.000 |  |  |  |  |  |  | 
DPVKG [Peptide E2, synthetic peptide of the invention] | 0.060 | 0.000 | 0.000 | excellent anti-inflammatory activity in comparison with other known peptide sequences; also recorded: much higher activity than the steroidal anti-inflammatory dexamethasone | 0.028 | statistically significant difference from other groups | 0.050 | 0.039 | statistically significant difference from other groups | 
GQDP [Peptide E3] | 0.000 | 0.001 | 0.016 |  | 0.007 |  | 0.000 | 0.002 |  | 
GTLAKKLT [Peptide P2] | 0.000 | 0.004 | 0.279 |  | 0.000 |  | 0.000 | 0.000 |  | 
HDMNKVLDL [Peptide A2, known peptide, antiflammin] | 0.000 | 0.161 | 0.382 |  | 0.000 |  | 0.002 | 0.003 |  | 
KVLD [Peptide A4, core tetrapeptide of antiflammins] | 0.045 | 0.001 | 0.082 |  | 0.028 |  | 0.000 | 0.000 |  | inactive
MQMKKVLDS [Peptide A3, known peptide, antiflammin] | 0.000 | 0.007 | 0.000 |  | 0.000 |  | 0.089 | 0.043 | statistically significant difference from other groups | 
PVKG [Peptide E1] | 0.000 | 0.002 | 0.001 |  | 0.000 |  | 0.017 | 0.012 | statistically significant difference from other groups | 
RKLMEI (PKLMEI) [Peptide P1] | 0.000 | 0.002 | 0.009 |  | 0.000 |  | 0.001 | 0.003 | statistically significant difference from other groups | 
SHLRKVFDK [Peptide A1, known peptide, antiflammin] | 0.006 | 0.000 | 0.003 |  | 0.004 |  | 0.007 | 0.009 | statistically significant difference from other groups | 
